Assays:
[1] = test system: common marmosets; assay: Depressive effect in marmosets (blood pressure of conscious marmosets in a high renin state); type: in vivo; conditions: 100 mg/kg orally, conscious furosemide-treated common marmoset
Method: The experiment was carried out by using common marmosets as described in K. G. Hofbauer et al., Clinical and Experimental Hypertension-Theory and Practice, Vol A5, Nos 7 & 8 (1983), pages 1237-1247.
Furosemide was orally administered three times to common marmosets at 15 mg per kilogram per day every other day to create a high renin state. The operation was performed according to the method used by K. G. Hofbauer et al., and blood pressure of conscious marmosets was measured 2 days after the last administration of furosemide.
Male common marmosets weighing 350 g and 280 g were lightly anesthetized by Ketamine hydrochloride (Ketalar®, 10 to 20 mg/kg i.m.), and their femoral artery and vein was exposed. Catheters being filled with a heparin solution was subcutaneously inserted into the femoral vein and the femoral artery from the tail. After suturing of the opened part, the marmosets were placed on a heated mat. After complete recovery from the anesthesia, a dipeptide of the present invention (100 mg/kg) was orally administered through a soft catheter.
The arterial catheter was connected to a pressure transducer and blood pressure was recorded on the polygraph.

[2] = biological target: T1, human renin (Homo sapiens, UniProt P00797); assay: Human renin-sheep renin substrate reaction system in vitro; type: biochemical; conditions: purified human renin, semipurified sheep renin substrate, pH 7.4, 37° C., 15 minutes; angiotensin I by radioimmunoassay; read-out: IC50 (molar concentration)
T1 sequence (P00797 67-406): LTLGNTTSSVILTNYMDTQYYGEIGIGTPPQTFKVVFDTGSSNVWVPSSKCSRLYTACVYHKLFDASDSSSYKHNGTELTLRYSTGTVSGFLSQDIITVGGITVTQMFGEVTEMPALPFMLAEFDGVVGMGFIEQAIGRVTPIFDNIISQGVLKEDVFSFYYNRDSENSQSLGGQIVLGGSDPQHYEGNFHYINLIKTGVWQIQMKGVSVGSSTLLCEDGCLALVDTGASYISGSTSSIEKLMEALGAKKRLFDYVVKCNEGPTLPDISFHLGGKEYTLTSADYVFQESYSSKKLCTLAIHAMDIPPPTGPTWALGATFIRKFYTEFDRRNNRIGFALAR
Method: The mixture was incubated for 15 minutes on a water bath at 37° C., and the reaction mixture was allowed to stand for 5 minutes on a water bath at 100° C. to stop the reaction. After cooling, 200 μl of the solution was taken up and the amount of angiotensin I produced by the addition of renin was determined by radioimmunoassay. The inhibitory effect was calculated by the following equation. [formula]
As a control, the same procedure as above was carried out by using 50 μl of dimethyl sulfoxide alone in place of the 50 μl of dimethyl sulfoxide solution containing a dipeptide of the present invention.

CC(C)C[C@@H](C=O)NC(=O)[C@H](Cc1c[nH]cn1)NC(=O)C(CC(=O)NCCc1ccccc1)Cc1cccc2ccccc12 (stereo partly drawn) [N-[2-(1-Naphthylmethyl)-3-(phenethylcarbamoyl)propionyl]-L-histidyl-L-leucinal]
Blood pressure (mm Hg) ([1]; 60 min. after administration): 98.2 mm Hg | Blood pressure (mm Hg) ([1]; 120 min. after administration): 88.0 mm Hg | Blood pressure (mm Hg) ([1]; 180 min. after administration): 87.6 mm Hg | Blood pressure (mm Hg) ([1]; 300 min. after administration): 96.5 mm Hg | Blood pressure (mm Hg) ([1]; 420 min. after administration): 101.2 mm Hg

CC(C)C[C@@H](CO)NC(=O)[C@H](Cc1c[nH]cn1)NC(=O)C(CC(=O)NCCc1ccccc1)Cc1cccc2ccccc12 (stereo partly drawn) [N-[2-(1-Naphthylmethyl)-3-(phenethylcarbamoyl)propionyl]-L-histidyl-L-leucinol]
Blood pressure (mm Hg) ([1]; 60 min. after administration): 97.7 mm Hg | Blood pressure (mm Hg) ([1]; 120 min. after administration): 89.5 mm Hg | Blood pressure (mm Hg) ([1]; 180 min. after administration): 95.3 mm Hg | Blood pressure (mm Hg) ([1]; 300 min. after administration): 97.4 mm Hg | Blood pressure (mm Hg) ([1]; 420 min. after administration): 99.0 mm Hg

CC(C)C[C@@H](C=O)NC(=O)[C@H](Cc1c[nH]cn1)NC(=O)C(CCCCc1ccccc1)Cc1cccc2ccccc12 (stereo partly drawn) [N-[2-(1-Naphthylmethyl)-6-phenylhexanoyl]-L-histidyl-L-leucinal]
IC50 [2]: 140 nM

CC(C)C[C@@H](CO)NC(=O)[C@H](Cc1c[nH]cn1)NC(=O)C(=Cc1cccc2ccccc12)CC(=O)NCCc1ccccc1 [N-[2-(1-Naphthylmethylene)-3-(phenethylcarbamoyl)propionyl]-L-histidyl-L-leucinol]
IC50 [2]: 69000 nM

CC(C)C[C@@H](C=O)NC(=O)[C@H](Cc1c[nH]cn1)NC(=O)C(CCCCc1ccc2ccccc2c1)Cc1ccccc1 (stereo partly drawn) [N-[2-Benzyl-6-(2-naphthyl)hexanoyl]-L-histidyl-L-leucinal]
IC50 [2]: 3400 nM

CC(C)C[C@@H](C=O)NC(=O)[C@H](Cc1c[nH]cn1)NC(=O)C(CCCCCc1ccccc1)Cc1ccccc1 (stereo partly drawn) [N-[2-Benzyl-7-phenylheptanoyl)-L-histidyl-L-leucinal]
IC50 [2]: 2000 nM

CC(C)C[C@@H](C=O)NC(=O)[C@H](Cc1c[nH]cn1)NC(=O)C(=Cc1ccccc1)CC(=O)NCc1cccc2ccccc12 [N-[2-Benzylidene-3-(1-naphthylmethylcarbamoyl)propionyl]-L-histidyl-L-leucinal]
IC50 [2]: 3800 nM

CC(C)C[C@@H](C=O)NC(=O)[C@H](Cc1c[nH]cn1)NC(=O)C(CCc1ccccc1)CCc1ccccc1 [N-[4-Phenyl-2-(2-phenylethyl)butanoyl]-L-histidyl-L-leucinal]
IC50 [2]: 3500 nM

CC(C)C[C@@H](C=O)NC(=O)[C@H](Cc1c[nH]cn1)NC(=O)C(CCCCc1ccccc1)Cc1cccc2ccccc12 (stereo partly drawn) [N-[(+)-2-(1-Naphthylmethyl)-6-phenylhexanoyl]-L-histidyl-L-leucinal]
IC50 [2]: 88 nM

CC(C)C[C@@H](C=O)NC(=O)[C@H](Cc1c[nH]cn1)NC(=O)C(CCCCc1ccccc1)Cc1cccc2ccccc12 (stereo partly drawn) [N-[(-)-2-(1-Naphthylmethyl)-6-phenylhexanoyl]-L-histidyl-L-leucinal]
IC50 [2]: 460 nM

From patent publication US4863904A, “Dipeptides as renin inhibitors” (priority 1984, dated 1989)
